System: MSC-EVs
Experiment: Dye labelling of MSC-EV preparations analysed by imaging flow cytometry (IFCM)
Method: MSC-EVs were prepared form human platelet lysate containing MSC-conditioned media by polyethylene glycol 6000 precipitation followed by ultracentrifugation, as described previously (Borger, V. et al, 2020, Scaled Isolation of Mesenchymal Stem/Stromal Cell-Derived Extracellular Vesicles. Curr Protoc Stem Cell Biol 55, e128; Kordelas et al., 2014, MSC-derived exosomes: a novel tool to treat therapy-refractory graft-versus-host disease. Leukemia 28, 970-973; Ludwig et al., 2018, Precipitation with polyethylene glycol followed by washing and pelleting by ultracentrifugation enriches extracellular vesicles from tissue culture supernatants in small and large scales. J Extracell Vesicles 7, 1528109). Conditioned media were harvested every 48 h. Obtained MSC-EV preparations were diluted in NaCl-HEPES buffer (Sigma-Aldrich, Taufkirchen, Germany) such that 1 mL of final samples contained the preparation yield of the conditioned media of approximately 4.0×10^7 cells.
The staining with CFSE (Thermo Fisher Scientific, Darmstadt, Germany) was based on the manufacturer's protocol. Slight modifications were required to reduce the signal from unbound CFSE. Briefly, the CFSE stock solution was diluted to a working solution of 10 μM CFSE. The solution was centrifuged three times for 10 min at 17,000 × g. Subsequently, 25 μL of MSC-EV preparations, corresponding to the amount of EVs derived from 1×10^6 MSCs, were incubated with the centrifuged CFSE solution for 20 min at 37° C. The sample was diluted 1:20 to a final volume of 1 mL prior to analysis.
The staining of MSC-EV preparations with Calcein AM followed the manufacturer's instructions. Briefly, 25 μL of MSC-EV preparations were incubated with 25 μL of a 20 μM solution of Calcein AM (Thermo Fisher Scientific) for 40 min at 37° C. The sample was diluted 1:20 to a final volume of 1 mL to reduce background noise, avoiding the requirement of a washing step.
The staining of MSC-EV preparations with BODIPY-TR-Ceramide followed the manufacturer's instructions. Briefly, 25 μL of the MSC-EV preparation, corresponding to EVs purified from […], were incubated with 25 μL of a 20 μM solution of BODIPY TR Ceramide (Thermo Fisher Scientific) for 20 min at 37° C. 450 μL of 0.9% NaCl with 10mM HEPES (0.9% NaCl, Melsungen, B. Braun; HEPES, Thermo Fisher Scientific) buffer was added and the EVs were washed by using a Centrifugal Concentrator (Vivaspin 500; Sartorius, Gottingen, Germany). The retentate was adjusted to 500 μL prior to analysis.
The staining of MSC-EV preparations with PKH67 followed the manufacturer's instructions for labeling EVs (Thermo Fisher Scientific). Briefly, using 200 μL of given MSC-EV preparations, corresponding to EVs purified from 8×10^6 cells, the solution was adjusted with Diluent C to a final volume of 1 mL. […]

## Calcein AM [reference compound]
IFCM, with anti-CD9, anti-CD63, anti-CD81 counterstaining where done
  labelling of sEVs in MSC-EV preparations (conclusion): do not Label
Dye + MSC-EVs
  labelled objects in MSC-EV preparations (FIG. 8): failed to label any detectable objects
